Measurements published in US9695155B2, “Herbicidal substituted pyrimidinyloxy benzene compounds” (E. I. DU PONT DE NEMOURS AND COMPANY, priority 2013, dated 2017).

What was measured:
[1] = tested on: Italian ryegrass; experiment: Test E postemergence; assay type: in vivo, Lolium multiflorum
Description: Seeds of plant species selected from corn (Zea mays), soybean (Glycine max), velvetleaf (Abutilon theophrasti), lambsquarters (Chenopodium album), wild poinsettia (Euphorbia heterophylla), palmer pigweed (Amaranthus palmeri), waterhemp (common waterhemp, Amaranthus rudis), surinam grass (Brachiaria decumbens), large (Lg) crabgrass (Digitaria sanguinalis), Brazilian crabgrass (Digitaria horizontalis), fall panicum (Panicum dichotomiflorum), giant foxtail (Setaria faberii), green foxtail (Setaria viridis), goosegrass (Eleusine indica), johnsongrass (Sorghum halepense), ragweed (common ragweed, Ambrosia elatior), barnyardgrass (Echinochloa crus-galli), sandbur (southern sandbur, Cenchrus echinatus), arrowleaf sida (Sida rhombifolia), Italian ryegrass (Lolium multiflorum), dayflower (Virginia (VA) dayflower, Commelina virginica), field bindweed (Convolvulus arvensis), morningglory (Ipomoea coccinea), nightshade (eastern black nightshade, Solanum ptycanthum), kochia (Kochia scoparia), yellow nutsedge (Cyperus esculentus), cocklebur (common cocklebur, Xanthium strumarium), smartweed (ladysthumb smartweed, and hairy beggarticks (Bidens pilosa), were planted into a silt loam soil and treated preemergence with test chemicals formulated in a non-phytotoxic solvent mixture which included a surfactant.
At the same time, plants from these crop and weed species and also horseweed (Canada horseweed, Conyza canadensis), waterhemp_RES1, (ALS & Triazine resistant common waterhemp, Amaranthus rudis), and waterhemp_RES2, (ALS & HPPD resistant common waterhemp, Amaranthus rudis) were planted in pots containing Redi-Earth® planting medium (Scotts Company, 14111 Scottslawn Road, Marysville, Ohio 43041) comprising spaghnum peat moss, vermiculite, wetting agent and starter nutrients were treated with postemergence applications of test chemicals formulated in the same manner. Plants ranged in height from 2 to 18 cm for postemergence treatments (1- to 4-leaf stage). Treated plants and controls were maintained in a greenhouse for 14 to 21 days, after which time all species were compared to controls and visually evaluated. Plant response ratings, summarized in Table E, are based on a scale of 0 to 100 where 0 is no effect and 100 is complete control. A dash (-) response means no test result.

[2] = tested on: bluegrass; experiment: Test D preemergence; assay type: in vivo, Poa annua; conditions: Poa annua, pre-emergence
Procedure, shortened: (§1)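 Solvent/surfactant formulations are sprayed pre (silt loam) or post (1–4 leaf plants, 2–18 cm). Plants stay 7–21 days in controlled conditions before a visual 0–100 score is given.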

[3] = tested on: wild mustard; experiment: Test D preemergence; assay type: in vivo, Sinapis arvensis; conditions: Brassica, pre-emergence
Procedure, shortened: as §1

[4] = tested on: spring barley; experiment: Test D preemergence; assay type: in vivo, Hordeum vulgare; conditions: Hordeum vulgare, pre-emergence
Procedure, shortened: as §1

[5] = tested on: blackgrass; experiment: Test D preemergence; assay type: in vivo, Alopecurus myosuroides; conditions: Alopecurus myosuroides, pre-emergence
Procedure, shortened: as §1

[6] = tested on: green foxtail; experiment: Test D postemergence; assay type: in vivo, Setaria viridis; conditions: Setaria viridis, post-emergence
Procedure, shortened: as §1

[7] = tested on: wild oat; experiment: Test D preemergence; assay type: in vivo, Avena fatua; conditions: Avena fatua, pre-emergence
Procedure, shortened: as §1

[8] = tested on: Italian ryegrass; experiment: Test D preemergence; assay type: in vivo, Lolium multiflorum; conditions: Lolium multiflorum, pre-emergence
Procedure, shortened: as §1

[9] = tested on: spring wheat; experiment: Test D postemergence; assay type: in vivo, Triticum aestivum; conditions: Triticum aestivum, post-emergence
Procedure, shortened: as §1

[10] = tested on: winter wheat; experiment: Test D postemergence; assay type: in vivo, Triticum aestivum; conditions: Triticum aestivum, post-emergence
Procedure, shortened: as §1

[11] = Postemergence, 31 g ai/ha, scale 0 to 100
[12] = Postemergence, 62 g ai/ha, scale 0 to 100
[13] = Postemergence, 125 g ai/ha, scale 0 to 100
[14] = postemergence, 16 g ai/ha, scale 0 to 100, 0 no effect, 100 complete control
[15] = Lolium multiflorum, post-emergence, Postemergence, 31 g ai/ha, scale 0 to 100, read-out: Plant response rating, Ryegrass, Italian
[16] = Lolium multiflorum, post-emergence, Postemergence, 62 g ai/ha, scale 0 to 100, read-out: Plant response rating, Ryegrass, Italian
[17] = Lolium multiflorum, post-emergence, Postemergence, 125 g ai/ha, scale 0 to 100, read-out: Plant response rating, Ryegrass, Italian
[18] = Lolium multiflorum, post-emergence, postemergence, 16 g ai/ha, scale 0 to 100, 0 no effect, 100 complete control, read-out: Plant response rating, Ryegrass, Italian

In the case of `Clc1cnc(Oc2cccc(Br)c2-n2cc(Br)cn2)nc1` [Compound 65], the “Plant response rating, Ryegrass, Italian” value [1, 11] was 0, the “Plant response rating, Ryegrass, Italian” value [1, 12] was 0 and the “Plant response rating, Ryegrass, Italian” value [1, 13] was 0. For the same compound, the “Plant response rating, Ryegrass, Italian” value ([1]; postemergence, 8 g ai/ha, scale 0 to 100, 0 no effect, 100 complete control) was 0 and the “Plant response rating, Ryegrass, Italian” value [1, 14] was 0.
Compound `Fc1cnc(Oc2ccccc2-n2cc(Br)cn2)nc1` [Compound 10, 2-[2-(4-bromo-1H-pyrazol-1-yl)phenoxy]-5-fluoropyrimidine] has a pest or weed control at 31 g/ha [1, 15] of 0%, a pest or weed control at 62 g/ha [1, 16] of 0% and a pest or weed control at 125 g/ha [1, 17] of 0%. It also gave a pest or weed control at 250 g/ha ([1]; Lolium multiflorum, post-emergence, Postemergence, 250 g ai/ha, scale 0 to 100, read-out: Plant response rating, Ryegrass, Italian) of 0% and a pest or weed control at 16 g/ha [1, 18] of 0%.
In the case of `FC(F)(F)c1cnn(-c2ccccc2Oc2ncc(Cl)cn2)c1` [Compound 16], the “Plant response rating, Ryegrass, Italian” value [1, 11] was 0, the “Plant response rating, Ryegrass, Italian” value [1, 12] was 0 and the “Plant response rating, Ryegrass, Italian” value [1, 13] was 0. For the same compound, the “Plant response rating, Ryegrass, Italian” value ([1]; Postemergence, 250 g ai/ha, scale 0 to 100) was 0 and the “Plant response rating, Ryegrass, Italian” value [1, 14] was 0.
With `Clc1cnc(Oc2ccccc2-n2cc(Br)cn2)nc1` [Compound 7, 2-[2-(4-bromo-1H-pyrazol-1-yl)phenoxy]-5-chloropyrimidine] the pest or weed control at 16 g/ha ([2]; 16 g ai/ha, scale 0 (no effect) to 100 (complete control), read-out: Plant response rating, Bluegrass) was 0%, the pest or weed control at 31 g/ha ([2]; 31 g ai/ha, scale 0-100, read-out: Plant response rating, Bluegrass) was 0% and the pest or weed control at 62 g/ha ([2]; 62 g ai/ha, scale 0-100, read-out: Plant response rating, Bluegrass) was 0%. The pest or weed control at 125 g/ha ([2]; 125 g ai/ha, scale 0-100, read-out: Plant response rating, Bluegrass) was 30%, the pest or weed control at 250 g/ha ([2]; 250 g ai/ha, scale 0-100, read-out: Plant response rating, Bluegrass) was 40% and the pest or weed control at 16 g/ha ([3]; 16 g ai/ha, scale 0 (no effect) to 100 (complete control), read-out: Plant response rating, Mustard, Wild) was 20%. For the same compound, the pest or weed control at 31 g/ha ([3]; 31 g ai/ha, scale 0-100, read-out: Plant response rating, Mustard, Wild) was 20%, the pest or weed control at 62 g/ha ([3]; 62 g ai/ha, scale 0-100, read-out: Plant response rating, Mustard, Wild) was 80% and the pest or weed control at 125 g/ha ([3]; 125 g ai/ha, scale 0-100, read-out: Plant response rating, Mustard, Wild) was 90%. The pest or weed control at 250 g/ha ([3]; 250 g ai/ha, scale 0-100, read-out: Plant response rating, Mustard, Wild) was 100%, the pest or weed control at 31 g/ha [1, 15] was 0% and the pest or weed control at 62 g/ha [1, 16] was 0%. The pest or weed control at 125 g/ha [1, 17] was 0%, the pest or weed control at 8 g/ha ([1]; Lolium multiflorum, post-emergence, postemergence, 8 g ai/ha, scale 0 to 100, 0 no effect, 100 complete control, read-out: Plant response rating, Ryegrass, Italian) was 0% and the pest or weed control at 16 g/ha [1, 18] was 0%. It also gave a plant injury at 16 g/ha ([4]; 16 g ai/ha, scale 0 (no effect) to 100 (complete control), read-out: Plant response rating, Barley, Spring) of 0%, a plant injury at 31 g/ha ([4]; 31 g ai/ha, scale 0-100, read-out: Plant response rating, Barley, Spring) of 0% and a plant injury at 62 g/ha ([4]; 62 g ai/ha, scale 0-100, read-out: Plant response rating, Barley, Spring) of 0%. The plant injury at 125 g/ha ([4]; 125 g ai/ha, scale 0-100, read-out: Plant response rating, Barley, Spring) was 0%, the plant injury at 250 g/ha ([4]; 250 g ai/ha, scale 0-100, read-out: Plant response rating, Barley, Spring) was 0% and the pest or weed control at 16 g/ha ([5]; 16 g ai/ha, scale 0 (no effect) to 100 (complete control), read-out: Plant response rating, Blackgrass) was 0%. The pest or weed control at 31 g/ha ([5]; 31 g ai/ha, scale 0-100, read-out: Plant response rating, Blackgrass) was 0%, the pest or weed control at 62 g/ha ([5]; 62 g ai/ha, scale 0-100, read-out: Plant response rating, Blackgrass) was 0% and the pest or weed control at 125 g/ha ([5]; 125 g ai/ha, scale 0-100, read-out: Plant response rating, Blackgrass) was 0%. For the same compound, the pest or weed control at 250 g/ha ([5]; 250 g ai/ha, scale 0-100, read-out: Plant response rating, Blackgrass) was 15%, the pest or weed control at 16 g/ha ([6]; 16 g ai/ha, scale 0-100, read-out: Plant response rating, Foxtail, Green) was 0% and the pest or weed control at 31 g/ha ([6]; 31 g ai/ha, scale 0 to 100 (0 no effect, 100 complete control), read-out: Plant response rating, Foxtail, Green) was 0%. For the same compound, the pest or weed control at 62 g/ha ([6]; 62 g ai/ha, scale 0 to 100 (0 no effect, 100 complete control), read-out: Plant response rating, Foxtail, Green) was 0%, the pest or weed control at 125 g/ha ([6]; 125 g ai/ha, scale 0 to 100 (0 no effect, 100 complete control), read-out: Plant response rating, Foxtail, Green) was 10% and the pest or weed control at 250 g/ha ([6]; 250 g ai/ha, scale 0 to 100 (0 no effect, 100 complete control), read-out: Plant response rating, Foxtail, Green) was 20%. It also gave a pest or weed control at 16 g/ha ([7]; 16 g ai/ha, scale 0 (no effect) to 100 (complete control), read-out: Plant response rating, Oat, Wild) of 0%, a pest or weed control at 31 g/ha ([7]; 31 g ai/ha, scale 0-100, read-out: Plant response rating, Oat, Wild) of 0% and a pest or weed control at 62 g/ha ([7]; 62 g ai/ha, scale 0-100, read-out: Plant response rating, Oat, Wild) of 0%. For the same compound, the pest or weed control at 125 g/ha ([7]; 125 g ai/ha, scale 0-100, read-out: Plant response rating, Oat, Wild) was 10%, the pest or weed control at 250 g/ha ([7]; 250 g ai/ha, scale 0-100, read-out: Plant response rating, Oat, Wild) was 10% and the pest or weed control at 16 g/ha ([8]; 16 g ai/ha, scale 0 (no effect) to 100 (complete control), read-out: Plant response rating, Ryegrass, Italian) was 0%. It also gave a pest or weed control at 31 g/ha ([8]; 31 g ai/ha, scale 0 (no effect) to 100 (complete control), read-out: Plant response rating, Ryegrass, Italian) of 0%, a pest or weed control at 62 g/ha ([8]; 62 g ai/ha, scale 0-100, read-out: Plant response rating, Ryegrass, Italian) of 0% and a pest or weed control at 125 g/ha ([8]; 125 g ai/ha, scale 0-100, read-out: Plant response rating, Ryegrass, Italian) of 0%. It also gave a pest or weed control at 250 g/ha ([8]; 250 g ai/ha, scale 0-100, read-out: Plant response rating, Ryegrass, Italian) of 5%, a plant injury at 16 g/ha ([9]; 16 g ai/ha, scale 0-100, read-out: Plant response rating, Wheat, Spring) of 0% and a plant injury at 31 g/ha ([9]; 31 g ai/ha, scale 0 to 100 (0 no effect, 100 complete control), read-out: Plant response rating, Wheat, Spring) of 0%. It also gave a plant injury at 62 g/ha ([9]; 62 g ai/ha, scale 0 to 100 (0 no effect, 100 complete control), read-out: Plant response rating, Wheat, Spring) of 0%, a plant injury at 125 g/ha ([9]; 125 g ai/ha, scale 0 to 100 (0 no effect, 100 complete control), read-out: Plant response rating, Wheat, Spring) of 10% and a plant injury at 250 g/ha ([9]; 250 g ai/ha, scale 0 to 100 (0 no effect, 100 complete control), read-out: Plant response rating, Wheat, Spring) of 10%. It also gave a plant injury at 16 g/ha ([10]; 16 g ai/ha, scale 0-100, read-out: Plant response rating, Wheat, Winter) of 0%, a plant injury at 31 g/ha ([10]; 31 g ai/ha, scale 0 to 100 (0 no effect, 100 complete control), read-out: Plant response rating, Wheat, Winter) of 0% and a plant injury at 62 g/ha ([10]; 62 g ai/ha, scale 0 to 100 (0 no effect, 100 complete control), read-out: Plant response rating, Wheat, Winter) of 0%. For the same compound, the plant injury at 125 g/ha ([10]; 125 g ai/ha, scale 0 to 100 (0 no effect, 100 complete control), read-out: Plant response rating, Wheat, Winter) was 10% and the plant injury at 250 g/ha ([10]; 250 g ai/ha, scale 0 to 100 (0 no effect, 100 complete control), read-out: Plant response rating, Wheat, Winter) was 10%.
